Where “and” joins values, the source holds several entries; their conditions need not be identical. Identical values can stand only once. Inconclusive results and toxic doses are left out. How the source made its calls: active means survival T/C of 150% or more; inactive means T/C below 125% in these data.
System: CD2F1 mice, L1210 leukemia ip, survival T/C
Assay: NCI In Vivo Anticancer Drug Screen. Data for tumor model L1210 Leukemia (intraperitoneal) in CD2F1 (CDF1) mice
Details: higher = longer survival
Procedure, shortened: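 Ratio T/C, where T is the treated-group value and C the vehicle-dosed control value, from mice implanted with a transplantable tumor.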

[1] = endpoint: mean survival time, dose: 5.0 mg/kg/injection, schedule: Q01DX009 (ip), vehicle: saline with Tween-80
[2] = endpoint: mean survival time, dose: 100.0 mg/kg/injection, schedule: Q04DX003 (ip), vehicle: saline with Tween-80
[3] = endpoint: mean survival time, dose: 50.0 mg/kg/injection, schedule: Q01DX009 (ip), vehicle: saline with Tween-80
[4] = endpoint: mean survival time, dose: 100.0 mg/kg/injection, schedule: Q01DX009 (ip), vehicle: saline with Tween-80
[5] = endpoint: mean survival time, dose: 200.0 mg/kg/injection, schedule: Q01DX009 (ip), vehicle: saline with Tween-80
[6] = endpoint: mean survival time, dose: 100.0 mg/kg/injection, schedule: Q01DX009 (ip), vehicle: saline
[7] = endpoint: mean survival time, dose: 200.0 mg/kg/injection, schedule: Q01DX009 (ip), vehicle: saline

Measured: T/C

C=CC(C)(C)n1cc(C2=C(O)C(=O)C(c3cn(C(C)(C)C=C)c4ccccc34)=C(O)C2=O)c2ccccc21
inactive: endpoint: mean survival time, dose: 2.5 mg/kg/injection, schedule: Q01DX009 (ip), vehicle: Klucel (hydroxypropylcellulose) (HPC) 97 % of control | endpoint: mean survival time, dose: 2.5 mg/kg/injection, schedule: Q01DX009 (ip), vehicle: carboxymethylcellulose (CMC) 100 % of control | endpoint: mean survival time, dose: 5.0 mg/kg/injection, schedule: Q01DX009 (ip), vehicle: Klucel (hydroxypropylcellulose) (HPC) 93 % of control | endpoint: mean survival time, dose: 5.0 mg/kg/injection, schedule: Q01DX009 (ip), vehicle: carboxymethylcellulose (CMC) 100 % of control | endpoint: mean survival time, dose: 9.0 mg/kg/injection, schedule: Q01DX009 (ip), vehicle: carboxymethylcellulose (CMC) 96 % of control | endpoint: mean survival time, dose: 10.0 mg/kg/injection, schedule: Q01DX009 (ip), vehicle: Klucel (hydroxypropylcellulose) (HPC) 91 % of control | endpoint: mean survival time, dose: 10.0 mg/kg/injection, schedule: Q01DX009 (ip), vehicle: carboxymethylcellulose (CMC) 98 % of control | endpoint: mean survival time, dose: 18.0 mg/kg/injection, schedule: Q01DX009 (ip), vehicle: carboxymethylcellulose (CMC) 98 % of control | endpoint: mean survival time, dose: 20.0 mg/kg/injection, schedule: Q01DX009 (ip), vehicle: Klucel (hydroxypropylcellulose) (HPC) 93 % of control | endpoint: mean survival time, dose: 20.0 mg/kg/injection, schedule: Q01DX009 (ip), vehicle: carboxymethylcellulose (CMC) 98 % of control | endpoint: mean survival time, dose: 26.0 mg/kg/injection, schedule: Q01DX009 (ip), vehicle: carboxymethylcellulose (CMC) 94 % of control | endpoint: mean survival time, dose: 40.0 mg/kg/injection, schedule: Q01DX009 (ip), vehicle: Klucel (hydroxypropylcellulose) (HPC) 93 % of control | endpoint: mean survival time, dose: 40.0 mg/kg/injection, schedule: Q01DX009 (ip), vehicle: carboxymethylcellulose (CMC) 93 % of control | endpoint: mean survival time, dose: 60.0 mg/kg/injection, schedule: Q01DX009 (ip), vehicle: carboxymethylcellulose (CMC) 100 % of control | endpoint: median survival time, dose: 5.0 mg/kg/injection, schedule: Q01DX009 (ip), vehicle: Klucel (hydroxypropylcellulose) (HPC) 101 % of control | endpoint: median survival time, dose: 10.0 mg/kg/injection, schedule: Q01DX009 (ip), vehicle: Klucel (hydroxypropylcellulose) (HPC) 100 % of control and 102 % of control | endpoint: median survival time, dose: 20.0 mg/kg/injection, schedule: Q01DX009 (ip), vehicle: Klucel (hydroxypropylcellulose) (HPC) 97 % of control and 100 % of control | endpoint: median survival time, dose: 40.0 mg/kg/injection, schedule: Q01DX009 (ip), vehicle: Klucel (hydroxypropylcellulose) (HPC) 115 % of control and 109 % of control

CC(C)=CCC/C(C)=C/CNCCc1c[nH]c2ccccc12
inactive: [1] 102 % of control | endpoint: mean survival time, dose: 10.0 mg/kg/injection, schedule: Q01DX009 (ip), vehicle: saline with Tween-80 98 % of control | endpoint: mean survival time, dose: 20.0 mg/kg/injection, schedule: Q01DX009 (ip), vehicle: saline with Tween-80 100 % of control

O=C(CCl)c1cccnc1C(=O)O
inactive: [2] 98 % of control

Cn1nc(NC(=O)C(F)(F)F)c2ncc(-c3ccccc3)nc21
inactive: [2] 91 % of control | endpoint: mean survival time, dose: 200.0 mg/kg/injection, schedule: Q04DX003 (ip), vehicle: saline with Tween-80 87 % of control | endpoint: mean survival time, dose: 400.0 mg/kg/injection, schedule: Q04DX003 (ip), vehicle: saline with Tween-80 91 % of control

NC(=S=O)C(N)=S=O
inactive: endpoint: median survival time, dose: 50.0 mg/kg/injection, schedule: Q01DX005 (ip), vehicle: saline with Tween-80 103 % of control | endpoint: median survival time, dose: 100.0 mg/kg/injection, schedule: Q01DX005 (ip), vehicle: saline with Tween-80 100 % of control | endpoint: median survival time, dose: 200.0 mg/kg/injection, schedule: Q01DX005 (ip), vehicle: saline with Tween-80 111 % of control | endpoint: median survival time, dose: 400.0 mg/kg/injection, schedule: Q01DX005 (ip), vehicle: saline with Tween-80 107 % of control

N#CCC(=O)N/N=C/c1ccc2c(c1)CCC2
inactive: endpoint: mean survival time, dose: 12.5 mg/kg/injection, schedule: Q01DX009 (ip), vehicle: saline with Tween-80 97 % of control | endpoint: mean survival time, dose: 12.5 mg/kg/injection, schedule: Q04DX003 (ip), vehicle: saline with Tween-80 100 % of control | endpoint: mean survival time, dose: 25.0 mg/kg/injection, schedule: Q01DX009 (ip), vehicle: saline with Tween-80 90 % of control | endpoint: mean survival time, dose: 25.0 mg/kg/injection, schedule: Q04DX003 (ip), vehicle: saline with Tween-80 97 % of control | [3] 90 % of control | endpoint: mean survival time, dose: 50.0 mg/kg/injection, schedule: Q04DX003 (ip), vehicle: saline with Tween-80 88 % of control

O=C1CSC(c2cccs2)N1c1nncs1 (configuration not stated)
inactive: endpoint: median survival time, dose: 25.0 mg/kg/injection, schedule: Q01DX005 (ip), vehicle: Klucel (hydroxypropylcellulose) (HPC) 94 % of control | endpoint: median survival time, dose: 50.0 mg/kg/injection, schedule: Q01DX005 (ip), vehicle: Klucel (hydroxypropylcellulose) (HPC) 102 % of control and 104 % of control and 110 % of control | endpoint: median survival time, dose: 100.0 mg/kg/injection, schedule: Q01DX005 (ip), vehicle: Klucel (hydroxypropylcellulose) (HPC) 94 % of control and 96 % of control and 103 % of control | endpoint: median survival time, dose: 200.0 mg/kg/injection, schedule: Q01DX005 (ip), vehicle: Klucel (hydroxypropylcellulose) (HPC) 116 % of control and 94 % of control (2×) | endpoint: median survival time, dose: 400.0 mg/kg/injection, schedule: Q01DX005 (ip), vehicle: Klucel (hydroxypropylcellulose) (HPC) 107 % of control | endpoint: median survival time, dose: 800.0 mg/kg/injection, schedule: Q01DX005 (ip), vehicle: Klucel (hydroxypropylcellulose) (HPC) 115 % of control

C[n+]1ccc(Nc2ccc(NC(=O)c3ccc(Nc4cc[n+](C)c5ccc([N+](=O)[O-])cc45)cc3[N+](=O)[O-])cc2)cc1
inactive: endpoint: mean survival time, dose: 79.0 mg/kg/injection, schedule: Q04DX003 (ip), vehicle: saline with Tween-80 122 % of control | [2] 113 % of control
active: endpoint: mean survival time, dose: 178.0 mg/kg/injection, schedule: Q04DX003 (ip), vehicle: saline with Tween-80 152 % of control | endpoint: mean survival time, dose: 266.0 mg/kg/injection, schedule: Q04DX003 (ip), vehicle: saline with Tween-80 177 % of control and 187 % of control

O=C(CNC(=O)Nc1cccc(C(F)(F)F)c1)N/N=C/c1ccco1
inactive: [3] 92 % of control | [4] 92 % of control | [5] 88 % of control

O=C(NCCCCC(Cl)C(=O)O)c1ccccc1 (configuration not stated)
inactive: [4] 98 % of control | [5] 100 % of control | endpoint: mean survival time, dose: 400.0 mg/kg/injection, schedule: Q01DX009 (ip), vehicle: saline with Tween-80 100 % of control

O=CC(C=O)[N+](=O)[O-]
inactive: endpoint: mean survival time, dose: 100.0 mg/kg/injection, schedule: Q01DX001 (ip), vehicle: saline 103 % of control | endpoint: mean survival time, dose: 200.0 mg/kg/injection, schedule: Q01DX001 (ip), vehicle: saline 103 % of control | endpoint: mean survival time, dose: 400.0 mg/kg/injection, schedule: Q01DX001 (ip), vehicle: saline 97 % of control

c1ccc(-c2nn(-c3ccccc3)[n+](-c3ccccc3)n2)cc1
inactive: endpoint: mean survival time, dose: 1.25 mg/kg/injection, schedule: Q01DX009 (ip), vehicle: saline with Tween-80 100 % of control | endpoint: mean survival time, dose: 2.5 mg/kg/injection, schedule: Q01DX009 (ip), vehicle: saline with Tween-80 100 % of control | [1] 104 % of control | endpoint: mean survival time, dose: 5.0 mg/kg/injection, schedule: Q04DX003 (ip), vehicle: saline 95 % of control

O=C(c1ccc(O)cc1O)c1ccc(O)cc1O
inactive: endpoint: mean survival time, dose: 50.0 mg/kg/injection, schedule: Q01DX009 (ip), vehicle: saline 104 % of control | [6] 96 % of control | [7] 93 % of control

c1ccc2c(c1)[nH]c1nc3ncncc3nc12
inactive: [6] 98 % of control | [7] 104 % of control | endpoint: mean survival time, dose: 400.0 mg/kg/injection, schedule: Q01DX009 (ip), vehicle: saline 112 % of control

Nc1nc(=O)n2ccn(C3OC(CO)C(O)C3O)c2n1 (configuration not stated)
inactive: endpoint: mean survival time, dose: 12.5 mg/kg/injection, schedule: Q01DX005 (ip), vehicle: distilled water + Tween-80 103 % of control | endpoint: mean survival time, dose: 25.0 mg/kg/injection, schedule: Q01DX005 (ip), vehicle: distilled water + Tween-80 100 % of control | endpoint: mean survival time, dose: 50.0 mg/kg/injection, schedule: Q01DX005 (ip), vehicle: distilled water + Tween-80 100 % of control | endpoint: mean survival time, dose: 100.0 mg/kg/injection, schedule: Q01DX005 (ip), vehicle: distilled water + Tween-80 100 % of control | endpoint: mean survival time, dose: 200.0 mg/kg/injection, schedule: Q01DX005 (ip), vehicle: distilled water + Tween-80 103 % of control

CCCCCCCCn1nnnc1N
inactive: endpoint: mean survival time, dose: 12.5 mg/kg/injection, schedule: Q01DX001 (ip), vehicle: Klucel (hydroxypropylcellulose) (HPC) 112 % of control | endpoint: mean survival time, dose: 25.0 mg/kg/injection, schedule: Q01DX001 (ip), vehicle: Klucel (hydroxypropylcellulose) (HPC) 97 % of control | endpoint: mean survival time, dose: 50.0 mg/kg/injection, schedule: Q01DX001 (ip), vehicle: Klucel (hydroxypropylcellulose) (HPC) 104 % of control

— PubChem BioAssay AID256 (DTP/NCI, 2004)
